From PubChem BioAssay AID248 (DTP/NCI, 2004)
Where “and” joins values, the source holds several entries; their conditions need not be identical. Equal entries are not always repeated. Inconclusive results and toxic doses are left out. Cut-off read from the data, not from the text of the source: active = T/C of 150% or more; inactive = T/C below 125%.

System: L1210 leukemia ip in BDF1 mice, survival T/C
Assay: NCI In Vivo Anticancer Drug Screen. Data for tumor model L1210 Leukemia (intraperitoneal) in B6D2F1 (BDF1) mice
Details: endpoint: mean survival time, higher = longer survival
How it was run: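 Value reflects the ratio of survival in compound-treated mice to survival in vehicle-treated controls, with both groups carrying the same transplanted tumor.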

[1] = dose: 100.0 mg/kg/injection, schedule: Q04DX003 (ip), vehicle: saline with Tween-80
[2] = dose: 200.0 mg/kg/injection, schedule: Q04DX003 (ip), vehicle: saline with Tween-80
[3] = dose: 400.0 mg/kg/injection, schedule: Q04DX003 (ip), vehicle: saline with Tween-80
[4] = dose: 100.0 mg/kg/injection, schedule: Q04DX002 (ip), vehicle: Klucel (hydroxypropylcellulose) (HPC)
[5] = dose: 100.0 mg/kg/injection, schedule: Q01DX001 (ip), vehicle: saline
[6] = dose: 200.0 mg/kg/injection, schedule: Q01DX001 (ip), vehicle: saline
[7] = dose: 400.0 mg/kg/injection, schedule: Q01DX001 (ip), vehicle: saline
[8] = dose: 75.0 mg/kg/injection, schedule: Q01DX001 (ip), vehicle: saline
[9] = dose: 150.0 mg/kg/injection, schedule: Q01DX001 (ip), vehicle: saline
[10] = dose: 300.0 mg/kg/injection, schedule: Q01DX001 (ip), vehicle: saline
[11] = dose: 25.0 mg/kg/injection, schedule: Q04DX003 (ip), vehicle: saline
[12] = dose: 50.0 mg/kg/injection, schedule: Q04DX003 (ip), vehicle: saline
[13] = dose: 25.0 mg/kg/injection, schedule: Q01DX009 (ip), vehicle: saline
[14] = dose: 50.0 mg/kg/injection, schedule: Q01DX009 (ip), vehicle: saline
[15] = dose: 100.0 mg/kg/injection, schedule: Q01DX009 (ip), vehicle: saline with Tween-80
[16] = dose: 100.0 mg/kg/injection, schedule: Q04DX002 (ip), vehicle: saline with Tween-80

Measured: T/C

CCOC(=O)CCCCCC(C)=O
inactive: dose: 100.0 mg/kg/injection, schedule: Q04DX003 (ip), vehicle: acetone 103 % of control | dose: 200.0 mg/kg/injection, schedule: Q04DX003 (ip), vehicle: acetone 100 % of control | dose: 400.0 mg/kg/injection, schedule: Q04DX003 (ip), vehicle: acetone 95 % of control

c1ccc(N2CCN(c3c4ccccc4nc4ccccc34)CC2)cc1
inactive: dose: 75.0 mg/kg/injection, schedule: Q01DX001 (ip), vehicle: Klucel (hydroxypropylcellulose) (HPC) 105 % of control | dose: 150.0 mg/kg/injection, schedule: Q01DX001 (ip), vehicle: Klucel (hydroxypropylcellulose) (HPC) 105 % of control | dose: 300.0 mg/kg/injection, schedule: Q01DX001 (ip), vehicle: Klucel (hydroxypropylcellulose) (HPC) 96 % of control

CCOC(=O)c1[nH]c2ccccc2c1CN(CC)CC
inactive: dose: 75.0 mg/kg/injection, schedule: Q01DX001 (ip), vehicle: carboxymethylcellulose (CMC) 94 % of control

CC(=O)OC1CCC2C3CCc4cc(OC(=S)N(C)C)ccc4C3CCC12C (stereo not drawn)
inactive: [1] 101 % of control | [2] 101 % of control | [3] 110 % of control

CN1CCC(C=C2c3ccccc3Sc3ccccc32)C1 (stereo not drawn)
inactive: dose: 8.0 mg/kg/injection, schedule: Q01DX015 (ip), vehicle: carboxymethylcellulose (CMC) 110 % of control | dose: 16.0 mg/kg/injection, schedule: Q01DX015 (ip), vehicle: carboxymethylcellulose (CMC) 102 % of control | dose: 32.0 mg/kg/injection, schedule: Q01DX015 (ip), vehicle: carboxymethylcellulose (CMC) 96 % of control | dose: 64.0 mg/kg/injection, schedule: Q01DX015 (ip), vehicle: carboxymethylcellulose (CMC) 98 % of control

CCCCCC(Oc1ccc(Cl)cc1C)C(=O)OCC (stereo not drawn)
inactive: [4] 90 % of control | dose: 200.0 mg/kg/injection, schedule: Q04DX002 (ip), vehicle: Klucel (hydroxypropylcellulose) (HPC) 87 % of control | dose: 400.0 mg/kg/injection, schedule: Q04DX002 (ip), vehicle: Klucel (hydroxypropylcellulose) (HPC) 107 % of control

O=C(c1ccccc1)c1ccc(Cl)c([N+](=O)[O-])c1
inactive: dose: 50.0 mg/kg/injection, schedule: Q01DX001 (ip), vehicle: saline 103 % of control | [5] 100 % of control | [6] 91 % of control | [7] 97 % of control

CC1(C#N)CC(C)(C)C(=O)N1 (stereo not drawn)
inactive: [8] 102 % of control | [9] 102 % of control | [10] 108 % of control

Cc1ccccc1NC1=C(Cl)C(=O)c2ccccc2C1=O
inactive: [11] 93 % of control | [12] 93 % of control | [5] 93 % of control

N/C(=N\OC(=O)Nc1ccc(Cl)cc1)C(Cl)(Cl)Cl
inactive: dose: 100.0 mg/kg/injection, schedule: Q01DX009 (ip), vehicle: Klucel (hydroxypropylcellulose) (HPC) 94 % of control | dose: 200.0 mg/kg/injection, schedule: Q01DX009 (ip), vehicle: Klucel (hydroxypropylcellulose) (HPC) 90 % of control

CC[n+]1c(C=Nc2ccc(N(C)C)cc2)sc2ccccc21
inactive: dose: 3.13 mg/kg/injection, schedule: Q04DX003 (ip), vehicle: carboxymethylcellulose (CMC) 107 % of control | dose: 6.25 mg/kg/injection, schedule: Q04DX003 (ip), vehicle: carboxymethylcellulose (CMC) 98 % of control | dose: 12.5 mg/kg/injection, schedule: Q04DX002 (ip), vehicle: carboxymethylcellulose (CMC) 104 % of control and 106 % of control | dose: 12.5 mg/kg/injection, schedule: Q04DX003 (ip), vehicle: carboxymethylcellulose (CMC) 96 % of control and 100 % of control | dose: 25.0 mg/kg/injection, schedule: Q04DX002 (ip), vehicle: carboxymethylcellulose (CMC) 109 % of control and 116 % of control

C#CCN(C)C(C)=O
inactive: [13] 104 % of control | [11] 95 % of control | [14] 102 % of control | [12] 101 % of control | dose: 100.0 mg/kg/injection, schedule: Q01DX009 (ip), vehicle: saline 105 % of control | dose: 100.0 mg/kg/injection, schedule: Q04DX003 (ip), vehicle: saline 96 % of control and 101 % of control

O=C(NC(=S)Nc1cccc2c(O)cccc12)c1ccc(Cl)cc1Cl
inactive: dose: 100.0 mg/kg/injection, schedule: Q01DX001 (ip), vehicle: saline with Tween-80 105 % of control | [15] 98 % of control and 90 % of control | [16] 95 % of control and 98 % of control | [1] 103 % of control | dose: 200.0 mg/kg/injection, schedule: Q01DX001 (ip), vehicle: saline with Tween-80 103 % of control | dose: 200.0 mg/kg/injection, schedule: Q01DX009 (ip), vehicle: saline with Tween-80 97 % of control and 117 % of control | dose: 200.0 mg/kg/injection, schedule: Q04DX002 (ip), vehicle: saline with Tween-80 101 % of control and 106 % of control | [2] 92 % of control | dose: 400.0 mg/kg/injection, schedule: Q01DX001 (ip), vehicle: saline with Tween-80 106 % of control | dose: 400.0 mg/kg/injection, schedule: Q01DX009 (ip), vehicle: saline with Tween-80 94 % of control and 98 % of control | dose: 400.0 mg/kg/injection, schedule: Q04DX002 (ip), vehicle: saline with Tween-80 95 % of control and 90 % of control | [3] 94 % of control

NCc1ccc(NC(=O)c2ccc(C(=O)Nc3ccc(CN)cc3)c(N)c2)cc1
inactive: dose: 21.0 mg/kg/injection, schedule: Q01DX Z (ip), vehicle: water 100 % of control | dose: 42.0 mg/kg/injection, schedule: Q01DX Z (ip), vehicle: water 98 % of control

O=C(O)C(Br)C(Br)c1ccccc1 (stereo not drawn)
inactive: [1] 101 % of control | [2] 106 % of control | [3] 96 % of control

CN(C)Cc1cc(Cl)ccc1O
inactive: [4] 100 % of control

CN(C)CCCN1c2ccccc2CCc2ccc(Cl)cc21
inactive: dose: 3.12 mg/kg/injection, schedule: Q01DX009 (ip), vehicle: saline 97 % of control | dose: 6.25 mg/kg/injection, schedule: Q01DX009 (ip), vehicle: saline 108 % of control | dose: 12.5 mg/kg/injection, schedule: Q01DX009 (ip), vehicle: saline 94 % of control | [13] 94 % of control | [11] 96 % of control | [14] 101 % of control | [12] 96 % of control

CCOP(=O)(OCC)C1=C(P(=O)(OCC)OCC)C(F)(F)C(F)(F)C1(F)F
inactive: dose: 9.5 mg/kg/injection, schedule: Q01DX001 (ip), vehicle: other 100 % of control | dose: 19.0 mg/kg/injection, schedule: Q01DX001 (ip), vehicle: other 100 % of control | dose: 38.0 mg/kg/injection, schedule: Q01DX001 (ip), vehicle: other 97 % of control

COC(=O)CC(=O)C=P(c1ccccc1)(c1ccccc1)c1ccccc1
inactive: dose: 12.5 mg/kg/injection, schedule: Q01DX009 (ip), vehicle: saline with Tween-80 98 % of control | dose: 25.0 mg/kg/injection, schedule: Q01DX009 (ip), vehicle: saline with Tween-80 101 % of control | dose: 50.0 mg/kg/injection, schedule: Q01DX009 (ip), vehicle: saline with Tween-80 95 % of control | [8] 96 % of control | [15] 89 % of control | [9] 100 % of control | [10] 93 % of control

CCCCCP(=O)(CCCCC)CCCCC
inactive: dose: 25.0 mg/kg/injection, schedule: Q04DX002 (ip), vehicle: saline with Tween-80 100 % of control | dose: 50.0 mg/kg/injection, schedule: Q04DX002 (ip), vehicle: saline with Tween-80 94 % of control | [16] 98 % of control and 106 % of control

CC(=O)c1ccc(C)c2ccccc12
inactive: [5] 101 % of control | [6] 102 % of control | [7] 95 % of control

O=CNC(Cc1cccc(N(CCCl)CCCl)c1)C(=O)O (stereo not drawn)
inactive: dose: 8.0 mg/kg/injection, schedule: Q01DX Z (ip), vehicle: methylcellulose (MC) 106 % of control | dose: 12.0 mg/kg/injection, schedule: Q01DX Z (ip), vehicle: methylcellulose (MC) 95 % of control | dose: 18.0 mg/kg/injection, schedule: Q01DX Z (ip), vehicle: methylcellulose (MC) 103 % of control | dose: 27.0 mg/kg/injection, schedule: Q01DX Z (ip), vehicle: methylcellulose (MC) 97 % of control

CC(=NC1CCCCC1)Nc1ccc(NC(=O)c2ccc(C(=O)Nc3ccc(NC(C)=NC4CCCCC4)cc3)cc2)cc1
inactive: dose: 15.0 mg/kg/injection, schedule: Q01DX Z (ip), vehicle: carboxymethylcellulose (CMC) 92 % of control | dose: 30.0 mg/kg/injection, schedule: Q01DX Z (ip), vehicle: carboxymethylcellulose (CMC) 93 % of control | dose: 60.0 mg/kg/injection, schedule: Q01DX Z (ip), vehicle: carboxymethylcellulose (CMC) 96 % of control
